Laboratory results: PubChem BioAssay (NCI)
Several values for one entry are separate records, joined by “and”; a condition that tells them apart may be missing. Equal entries are not always repeated.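 Growth conditions: 96-well plates. Treatment: test compound, 48 hours, 5 concentrations. Analysis: linear interpolation between bracketing concentrations; unreached endpoints set to highest concentration. GI50: concentration for 50% inhibition of growth. TGI denotes the concentration required for complete inhibition of growth.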

Key:
Test in all cases: NCI-60 cell line screen, 48 h
TK-10 renal = tested on: TK-10 renal
U251 CNS = tested on: U251 CNS
SF-295 CNS = tested on: SF-295 CNS
SNB-75 CNS = tested on: SNB-75 CNS
HCC-2998 colon = tested on: HCC-2998 colon
EKVX NSCLC = tested on: EKVX NSCLC
COLO 205 colon = tested on: COLO 205 colon
UACC-257 melanoma = tested on: UACC-257 melanoma
NCI-H460 lung = tested on: NCI-H460 lung
SR leukemia = tested on: SR leukemia

Structure (SMILES)	GI50 (TK-10 renal)	TGI (TK-10 renal)	GI50 (U251 CNS)	TGI (U251 CNS)	GI50 (SF-295 CNS)	TGI (SF-295 CNS)	GI50 (SNB-75 CNS)	TGI (SNB-75 CNS)	GI50 (HCC-2998 colon)	TGI (HCC-2998 colon)	GI50 (EKVX NSCLC)	TGI (EKVX NSCLC)	GI50 (COLO 205 colon)	TGI (COLO 205 colon)	GI50 (UACC-257 melanoma)	TGI (UACC-257 melanoma)	GI50 (NCI-H460 lung)	TGI (NCI-H460 lung)	GI50 (SR leukemia)	TGI (SR leukemia)
CN1CCN(c2ccc(NC3=CC(=O)c4ncncc4C3=O)cc2)CC1	2.01 µM	3.81 µM	0.722 µM	1.94 µM	0.511 µM	1.66 µM	1.7 µM	3.11 µM	1.27 µM	2.82 µM	0.56 µM	2.15 µM	1.93 µM	4.07 µM	0.177 µM	0.357 µM	0.354 µM	1.22 µM	0.321 µM	> 100 µM
Cc1cc(N(CCNc2ccnc3cc(Cl)ccc23)Cc2ccc3c(c2)OCO3)nc(N2CCCC2)n1	1.74 µM	3.8 µM	1.36 µM	3.21 µM	1.34 µM	2.88 µM	1.34 µM	3 µM	1.89 µM	3.9 µM	2.74 µM	14.2 µM	1.53 µM	3.17 µM	1.64 µM	3.24 µM	–	–	0.25 µM	0.635 µM
COC(=O)CC1=C(C)/C(=C/c2[nH]c(-c3ccc[nH]3)cc2OC)N=C1C	0.214 µM	3.41 µM	0.175 µM	1.81 µM	0.332 µM	1.69 µM	0.137 µM	2.16 µM	0.207 µM	6.07 µM	0.584 µM	10.1 µM	0.123 µM	0.814 µM	0.282 µM	1.12 µM	0.179 µM	2.2 µM	0.133 µM	0.677 µM
CN(C)c1ccc2[nH]c3c(C(N)=O)cc(=O)c(=O)c=3oc2c1	3.73 µM	> 100 µM	1.8 µM	9.8 µM	3.22 µM	> 100 µM	2.5 µM	9.19 µM	4.9 µM	> 100 µM	3.36 µM	61.6 µM	3.5 µM	> 100 µM	1.77 µM	6.18 µM	2.57 µM	> 100 µM	0.942 µM	8.49 µM
CCC(c1ccccc1)c1cc(C(C)(C)C)cc(C(C)(C)C)c1O (stereo not drawn)	–	28.8 µM	–	31.5 µM	–	26.9 µM	–	27.2 µM	–	29.2 µM	–	32.2 µM	–	34.2 µM	–	28.5 µM	–	31.3 µM	–	> 100 µM
CSc1nc2c(c(=O)n1C)C(c1ccccc1)C1=C(N2)/C(=C/c2ccccc2)CCC1 (stereo not drawn)	20.9 µM	> 100 µM	3.99 µM	34.9 µM	4.67 µM	34 µM	11.3 µM	29.7 µM	> 100 µM	> 100 µM	24.2 µM	> 100 µM	10.3 µM	> 100 µM	6.63 µM	> 100 µM	9.87 µM	> 100 µM	1.89 µM	> 100 µM
COc1ccc(-c2[nH]ncc2Nc2cc(OC)c(OC)c(OC)c2)cc1	> 32 µM	96.9 µM	2.21 µM	> 100 µM	1.31 µM	> 21.1 µM	1.52 µM	> 100 µM	2.17 µM	37.9 µM	1.93 µM	> 49.4 µM	1.61 µM	6.32 µM	34 µM	> 100 µM	2.68 µM	> 63.6 µM	0.36 µM	> 100 µM
O=C(CI)Nc1ccc(Br)cc1	1.92 µM	3.63 µM	1.83 µM	3.87 µM	11.2 µM	30.7 µM	5.42 µM	24.7 µM	13.4 µM	27.3 µM	2.25 µM	5.85 µM	1.85 µM	3.7 µM	2.05 µM	4.66 µM	12.4 µM	45.8 µM	0.365 µM	> 100 µM
CCCCOC(=O)NC(=O)c1cn(CCCOC(=O)CCCCCCCCC(=O)OCCCn2cc(C(=O)NC(=O)OCCCC)c(=O)n(C)c2=O)c(=O)n(C)c1=O	–	> 100 µM	–	> 100 µM	–	> 100 µM	–	> 100 µM	–	> 100 µM	–	> 100 µM	–	> 100 µM	–	> 100 µM	–	> 100 µM	–	> 100 µM
COc1cc(O)c(C(=O)/C=C/c2ccc(OC)c(OCc3ccccc3)c2)c(OC)c1	–	> 100 µM	–	> 100 µM	–	2.43 µM	–	> 100 µM	–	> 100 µM	–	> 100 µM	–	2.09 µM	–	> 100 µM	–	> 100 µM	–	> 100 µM
O=C1/C(=C/c2ccc(C(F)(F)F)cc2)COc2ccc(O)c(O)c21	1.64 µM	3.03 µM	0.703 µM	2.05 µM	3.15 µM	8.52 µM	1.39 µM	3.02 µM	1.7 µM	3.16 µM	1.61 µM	2.99 µM	1.58 µM	3.06 µM	1.58 µM	3.46 µM	1.85 µM	3.9 µM	0.267 µM	2.53 µM
O=C(CCc1ccccc1)CC1OC(=O)C(Cl)=C1Cl (stereo not drawn)	–	57.7 µM	–	30.4 µM	–	87.4 µM	–	> 100 µM	–	32.6 µM	–	66.1 µM	–	30.9 µM	–	41.1 µM	–	96.2 µM	–	> 100 µM
CCS(=O)(=O)c1ccc(OC)c(Nc2ncc(-c3cccc(F)c3)o2)c1	> 25 µM	> 25 µM	> 25 µM	> 25 µM	> 25 µM	> 25 µM	> 10.6 µM	> 25 µM	> 25 µM	> 25 µM	> 25 µM	> 25 µM	> 25 µM	> 25 µM	> 25 µM	> 25 µM	> 25 µM	> 25 µM	> 25 µM	> 25 µM
COc1ccc(C(=O)C(C(=O)C(=O)NCCCNC(=O)C(=O)C(C(=O)c2ccc(OC)cc2)c2ccc(OC)cc2)c2ccc(OC)cc2)cc1 (stereo not drawn)	–	> 100 µM	–	> 100 µM	–	> 100 µM	–	> 100 µM	–	> 100 µM	–	> 100 µM	–	> 100 µM	–	> 100 µM	–	> 100 µM	–	> 100 µM
CCC(=O)Nc1nnc(Cc2ccc(OC)c(OC)c2)s1	> 100 µM	> 100 µM	> 100 µM	> 100 µM	> 100 µM	> 100 µM	44.2 µM	> 100 µM	> 100 µM	> 100 µM	–	–	> 100 µM	> 100 µM	> 100 µM	> 100 µM	> 100 µM	> 100 µM	> 100 µM	> 100 µM
Cc1ccc(-c2nc3sc(C)cn3c2/C=C2\C(=O)Nc3ccc(Cl)cc32)cc1	9.28 µM	24.7 µM	3.92 µM	15.3 µM	8.2 µM	32.9 µM	3.1 µM	8.44 µM	15.1 µM	31.1 µM	16 µM	39.3 µM	31 µM	> 100 µM	16.6 µM	44.9 µM	15.7 µM	31.9 µM	10.8 µM	36.7 µM
COc1ccc2nc3ccccc3c(NCCNCC(C)O)c2c1 (stereo not drawn)	0.54 µM	6.04 µM	0.549 µM	4.94 µM	0.36 µM	4.02 µM	0.781 µM	2.59 µM	0.519 µM	2.37 µM	1.1 µM	7.82 µM	0.192 µM	0.704 µM	0.81 µM	3.84 µM	0.276 µM	10.4 µM	0.278 µM	10.8 µM
Cc1cc(N2CCOCC2)nc(NCc2cc(Nc3ccnc4cc(Cl)ccc34)ccc2F)n1	1.84 µM	3.4 µM	1.63 µM	3.12 µM	1.59 µM	3.03 µM	1.19 µM	2.64 µM	1.67 µM	3.26 µM	1.52 µM	3.91 µM	0.665 µM	2.15 µM	1.85 µM	3.54 µM	1.83 µM	3.57 µM	1.61 µM	3.82 µM
CN(C)N=Nc1ccc(S(N)(=O)=O)cc1	–	> 100 µM	–	> 100 µM	–	> 100 µM	–	> 100 µM	–	> 100 µM	–	> 100 µM	–	> 100 µM	–	> 100 µM	–	> 100 µM	–	> 100 µM
COc1cc(C(=O)n2nc(N)c3c(C)cc(C)nc32)cc(OC)c1OC	> 100 µM	> 100 µM	> 82.9 µM	> 100 µM	> 100 µM	> 100 µM	> 38.3 µM	> 100 µM	> 100 µM	> 100 µM	–	–	> 40.9 µM	> 100 µM	> 100 µM	> 100 µM	> 100 µM	> 100 µM	0.784 µM	> 100 µM
CNc1cc(-c2cccc(OC(F)(F)F)c2)nc2ccc(N3CCCC3)cc12	1.94 µM and 1.78 µM and 1.8 µM	3.39 µM and 3.2 µM and 3.24 µM	1.58 µM and 1.69 µM and 1.67 µM	3.07 µM and 3.08 µM and 3.11 µM	1.61 µM and 1.75 µM and 1.68 µM	2.98 µM and 3.2 µM and 3.09 µM	1.7 µM and 1.48 µM	3.12 µM and 2.93 µM	1.93 µM and 1.94 µM and 1.75 µM	3.5 µM and 3.48 µM and 3.23 µM	1.64 µM and 1.57 µM and 1.74 µM	3.43 µM and 3.06 µM and 3.42 µM	1.84 µM and 1.81 µM	3.58 µM and 3.29 µM	1.89 µM and 1.77 µM and 1.86 µM	3.37 µM and 3.16 µM and 3.34 µM	1.6 µM and 1.75 µM	3.07 µM and 3.44 µM	0.31 µM and 1.56 µM	1.78 µM and 4.22 µM
CSc1nnc(C(C#N)C#N)nn1	–	> 100 µM	–	> 100 µM	–	> 100 µM	–	> 100 µM	–	> 100 µM	–	> 100 µM	–	> 100 µM	–	> 100 µM	–	> 100 µM	–	> 100 µM
COc1ccc(-c2c(-c3ccc(C#N)c(F)c3)nc(N3CCC(N)CC3)n(C)c2=O)cc1F	12.8 µM	32.4 µM	14.6 µM	32.8 µM	15.4 µM	31.9 µM	10.9 µM	27.7 µM	13 µM	26.7 µM	15.5 µM	52.8 µM	13.3 µM	31.1 µM	13.6 µM	29.2 µM	19.1 µM	37.1 µM	12.2 µM	34.6 µM
Cc1ccc(S(=O)(=O)NNS(C)(=O)=O)cc1	–	> 100 µM	–	> 100 µM	–	> 100 µM	–	> 100 µM	–	> 100 µM	–	> 100 µM	–	> 100 µM	–	> 100 µM	–	> 100 µM	–	> 100 µM
Cc1ccc(Nc2nc(-c3ccc(-c4ccc([N+](=O)[O-])cc4)o3)cs2)cc1	–	> 100 µM	–	> 100 µM	–	> 100 µM	–	> 100 µM	–	97 µM	–	–	–	> 100 µM	–	90 µM	–	> 100 µM	–	> 100 µM
CCCCCCCCN=C(NCCCCCCCC)SCc1cccc2ccccc12	1.74 µM	3.2 µM	1.59 µM	2.98 µM	1.51 µM	3.02 µM	1.66 µM	3.18 µM	1.62 µM	3.05 µM	1.79 µM	3.49 µM	1.48 µM	2.95 µM	1.75 µM	3.33 µM	1.69 µM	3.38 µM	0.427 µM	2.39 µM
CC(=O)Nc1ccc(/C=c2\sc3nnc(-c4cccnc4)n3c2=O)cc1	–	57.3 µM	–	33.5 µM	–	> 100 µM	–	57.7 µM	–	35.8 µM	–	55.2 µM	–	29.8 µM	–	49 µM	–	30.9 µM	–	46.7 µM
Cc1c(C(N)=O)sc2nc(C)n(/N=c3\scc(-c4ccccc4)n3Cc3ccccc3)c(=O)c12	3.78 µM	> 100 µM	3.32 µM	> 100 µM	2.93 µM	> 100 µM	2.8 µM	> 100 µM	3.05 µM	> 100 µM	–	–	2.39 µM	7.32 µM	3.56 µM	24.3 µM	2.65 µM	7.34 µM	5.74 µM	> 100 µM
CCOC(=O)/C=C1/SC(=Nc2ccc(C#N)cc2)N(Cc2ccco2)C1=O	2.54 µM	8.19 µM	2.07 µM	4.06 µM	9.99 µM	26.6 µM	10.3 µM	55.4 µM	3.67 µM	15.8 µM	5.66 µM	30.2 µM	–	–	5.34 µM	18.4 µM	5.66 µM	19.7 µM	2.71 µM	8.41 µM
COC1/C(=C\C(C)=O)c2ccccc2N1C(C)=O (stereo not drawn)	–	–	–	> 100 µM	–	> 100 µM	–	> 100 µM	–	> 100 µM	–	> 100 µM	–	> 100 µM	–	> 100 µM	–	> 100 µM	–	> 100 µM
